Data: patent EP0541662B1, “SYNTHETIC PEPTIDES THAT ANTAGONIZE NEUROKININ A, THEIR SALTS AND THEIR MANUFACTURING PROCESSES” (A. MENARINI INDUSTRIE FARMACEUTICHE RIUNITE S.R.L., priority 1990, dated 1992)
Square brackets hold non-standard residues; d marks the D form. Peptide text beside a SMILES is read from it. Nle = CCCC[C@H](N)C(=O)O; Orn = NCCC[C@H](N)C(=O)O

Target: T1, NK-2 receptor (Oryctolagus cuniculus, UniProt P79218)
T1 construct: This preparation is isolated rabbit pulmonary artery, in which tachykinins produce dose-related contraction; from tissue; host or cells: isolated rabbit pulmonary artery
T1 sequence (P79218 1-384): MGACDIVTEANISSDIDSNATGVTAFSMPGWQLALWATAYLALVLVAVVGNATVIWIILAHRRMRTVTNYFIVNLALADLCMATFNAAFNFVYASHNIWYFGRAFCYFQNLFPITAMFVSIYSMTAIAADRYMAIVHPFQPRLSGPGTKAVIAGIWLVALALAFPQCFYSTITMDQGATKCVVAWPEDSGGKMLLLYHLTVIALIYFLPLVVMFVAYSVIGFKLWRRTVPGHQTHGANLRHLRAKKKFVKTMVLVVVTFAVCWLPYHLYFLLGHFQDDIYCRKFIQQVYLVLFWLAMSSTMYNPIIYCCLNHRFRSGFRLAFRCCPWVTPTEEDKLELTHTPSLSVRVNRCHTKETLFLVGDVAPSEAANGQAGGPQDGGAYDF
Assay: Antagonism of NKA-induced contraction in isolated rabbit pulmonary artery
Assay type: cell-based
Conditions: inhibition of the response to NKA (3 nM), 10⁻⁶M concentration of each compound
Method: The ability of the peptides described in the present invention to interact with the neurokinin A receptor as agonists or antagonists was evaluated in an in-vitro study using a preparation in which the biological response produced by tachykinins and related peptides is determined exclusively from the neurokinin A receptor (NK-2 receptor). This preparation is isolated rabbit pulmonary artery, in which tachykinins produce dose-related contraction (Rovero et al., Neuropeptides, 1989, 13: 263-270). The activity of the peptides in this preparation was determined using a concentration of NKA (3 nM) that produces a response equivalent to 45% of the maximum. The peptides that are the subject of the present application were added to the preparation in increasing concentrations and their activity evaluated in terms of inhibition of the response to NKA.
Antagonist biological activity on the NK-2 receptor in isolated rabbit pulmonary artery of the peptides described.

| SMILES | inhibition |
| --- | --- |
| CC(C)[C@@H]1NC(=O)[C@@H](Cc2c[nH]c3ccccc23)NC(=O)[C@H](Cc2ccc(O)cc2)NC(=O)[C@H](CC(=O)O)NC(=O)[C@H](CCCNC(=N)N)NC(=O)[C@@H](Cc2c[nH]c3ccccc23)NC(=O)[C@@H](Cc2c[nH]c3ccccc23)NC1=O [Cyclo[AspTyrDTrpValDTrpDTrpArg], cyclo[AspTyrDTrpValDTrpDTrpArg]] (cyclo(DY[dW]V[dW][dW]R)) | 95% |
| CC(C)[C@@H]1NC(=O)[C@@H](Cc2c[nH]c3ccccc23)NC(=O)[C@H](Cc2ccc(O)cc2)NC(=O)[C@H](CC(=O)O)NC(=O)[C@H](CCCCN)NC(=O)[C@@H](Cc2c[nH]c3ccccc23)NC(=O)[C@@H](Cc2c[nH]c3ccccc23)NC1=O [Cyclo[AspTyrDTrpValDTrpDTrpLys], cyclo[AspTyrDTrpValDTrpDTrpLys]] (cyclo(DY[dW]V[dW][dW]K)) | 95% |
| CC(C)[C@H](NC(=O)[C@@H](Cc1c[nH]c2ccccc12)NC(=O)[C@H](Cc1ccc(O)cc1)NC(=O)[C@@H](N)CC(=O)O)C(=O)N[C@H](Cc1c[nH]c2ccccc12)C(=O)N[C@H](Cc1c[nH]c2ccccc12)C(=O)N[C@@H](C)C(N)=O [H-Asp-Tyr-DTrp-Val-DTrp-DTrp-Ala-NH₂] (H-DY[dW]V[dW][dW]A-NH2) | 100% |
| CC(C)[C@H](NC(=O)[C@@H](Cc1c[nH]c2ccccc12)NC(=O)[C@H](Cc1ccc(O)cc1)NC(=O)[C@@H](N)CC(=O)O)C(=O)N[C@H](Cc1c[nH]c2ccccc12)C(=O)N[C@H](Cc1c[nH]c2ccccc12)C(=O)N[C@@H](CCC(=O)O)C(N)=O [H-Asp-Tyr-DTrp-Val-DTrp-DTrp-Glu-NH₂] (H-DY[dW]V[dW][dW]E-NH2) | 100% |
| CC(C)[C@H](NC(=O)[C@@H](Cc1c[nH]c2ccccc12)NC(=O)[C@H](Cc1ccc(O)cc1)NC(=O)[C@@H](N)CC(=O)O)C(=O)N[C@H](Cc1c[nH]c2ccccc12)C(=O)N[C@H](Cc1c[nH]c2ccccc12)C(=O)NCC(N)=O [H-Asp-Tyr-DTrp-Val-DTrp-DTrp-Gly-NH₂] (H-DY[dW]V[dW][dW]G-NH2) | 100% |
| CC(C)C[C@H](NC(=O)[C@@H](Cc1c[nH]c2ccccc12)NC(=O)[C@@H](Cc1c[nH]c2ccccc12)NC(=O)[C@@H](NC(=O)[C@@H](Cc1c[nH]c2ccccc12)NC(=O)[C@H](Cc1ccc(O)cc1)NC(=O)[C@@H](N)CC(=O)O)C(C)C)C(N)=O [H-Asp-Tyr-DTrp-Val-DTrp-DTrp-Leu-NH₂] (H-DY[dW]V[dW][dW]L-NH2) | 100% |
| CC(C)[C@H](NC(=O)[C@@H](Cc1c[nH]c2ccccc12)NC(=O)[C@H](Cc1ccc(O)cc1)NC(=O)[C@@H](N)CC(=O)O)C(=O)N[C@H](Cc1c[nH]c2ccccc12)C(=O)N[C@H](Cc1c[nH]c2ccccc12)C(=O)N[C@@H](CCCCN)C(N)=O [H-Asp-Tyr-DTrp-Val-DTrp-DTrp-Lys-NH₂] (H-DY[dW]V[dW][dW]K-NH2) | 100% |
| CCCC[C@H](NC(=O)[C@@H](Cc1c[nH]c2ccccc12)NC(=O)[C@@H](Cc1c[nH]c2ccccc12)NC(=O)[C@@H](NC(=O)[C@@H](Cc1c[nH]c2ccccc12)NC(=O)[C@H](Cc1ccc(O)cc1)NC(=O)[C@@H](N)CC(=O)O)C(C)C)C(N)=O [H-Asp-Tyr-DTrp-Val-DTrp-DTrp-Nle-NH₂] (H-DY[dW]V[dW][dW][Nle]-NH2) | 100% |
| CC(C)[C@H](NC(=O)[C@@H](Cc1c[nH]c2ccccc12)NC(=O)[C@H](Cc1ccc(O)cc1)NC(=O)[C@@H](N)CC(=O)O)C(=O)N[C@H](Cc1c[nH]c2ccccc12)C(=O)N[C@H](Cc1c[nH]c2ccccc12)C(=O)N[C@@H](CCCN)C(N)=O [H-Asp-Tyr-DTrp-Val-DTrp-DTrp-Orn-NH₂] (H-DY[dW]V[dW][dW][Orn]-NH2) | 100% |
